Experimental data published in ChEMBL document CHEMBL1201862, “PubChem BioAssay data set” (2004).
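These data come from cells grown in 96-well plates and exposed to compound for 48 hours at five concentrations. The concentration for 50% growth inhibition is given as GI50.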 Activity calls are given as the source filed them. Cut-off read from the data, not from the text of the source: active = GI50 up to about 1.1 µM and inactive = higher.

How the values were obtained:
Assay in all cases: NCI-60 cell line screen, 48 h
786-0 = system: 786-0
A498 = system: A498
A549 = system: A549
ACHN = system: ACHN
BT-549 = system: BT-549
CAKI-1 = system: CAKI-1
CCRF-CEM = system: CCRF-CEM
COLO 205 = system: COLO 205
DU-145 = system: DU-145
EKVX = system: EKVX
HCC 2998 = system: HCC 2998
HCT-116 = system: HCT-116
HCT-15 = system: HCT-15
HL-60 = system: HL-60
HOP-62 = system: HOP-62
HOP-92 = system: HOP-92
HT-29 = system: HT-29
IGROV-1 = system: IGROV-1
K562 = system: K562
KM12 = system: KM12
LOX IMVI = system: LOX IMVI
M14 = system: M14
MCF7 = system: MCF7
MDA-MB-231 = system: MDA-MB-231
MDA-MB-435 = system: MDA-MB-435
MDA-N = system: MDA-N
MOLT-4 = system: MOLT-4
Malme-3M = system: Malme-3M
NCI-H226 = system: NCI-H226
NCI-H23 = system: NCI-H23
NCI-H460 = system: NCI-H460
NCI/ADR-RES = system: NCI/ADR-RES
OVCAR-3 = system: OVCAR-3
OVCAR-4 = system: OVCAR-4
OVCAR-5 = system: OVCAR-5
OVCAR-8 = system: OVCAR-8
PC-3 = system: PC-3
RPMI-8226 = system: RPMI-8226
RXF 393 = system: RXF 393
SF-268 = system: SF-268
SF-295 = system: SF-295
SK-MEL-28 = system: SK-MEL-28
SK-MEL-5 = system: SK-MEL-5
SK-OV-3 = system: SK-OV-3
SN12C = system: SN12C
SNB-19 = system: SNB-19
SNB-75 = system: SNB-75
SW-620 = system: SW-620
T47D = system: T47D
TK-10 = system: TK-10
U-251 = system: U-251
UACC-257 = system: UACC-257
UACC-62 = system: UACC-62
UO-31 = system: UO-31
NCI-H522 = system: NCI-H522
SK-MEL-2 = system: SK-MEL-2
SR = system: SR
SF-539 = system: SF-539

Measured: GI50

C[C@@](Br)(C(=O)O)[C@H](Br)C(=O)O
inactive: 786-0 > 100 µM | A498 > 100 µM | A549 > 100 µM | ACHN > 100 µM | BT-549 > 100 µM | CAKI-1 55.5 µM | CCRF-CEM > 100 µM | COLO 205 > 100 µM | DU-145 > 100 µM | EKVX 83.4 µM | HCC 2998 > 100 µM | HCT-116 > 100 µM | HL-60 > 100 µM | HOP-62 > 100 µM | HOP-92 > 100 µM | HT-29 > 100 µM | IGROV-1 > 100 µM | K562 > 100 µM | KM12 > 100 µM | LOX IMVI > 100 µM | M14 > 100 µM | MCF7 > 100 µM | MDA-MB-231 > 100 µM | MDA-MB-435 > 100 µM | MDA-N > 100 µM | MOLT-4 > 100 µM | Malme-3M > 100 µM | NCI-H226 > 100 µM | NCI-H23 > 100 µM | NCI-H460 > 100 µM | NCI/ADR-RES > 100 µM | OVCAR-3 > 100 µM | OVCAR-4 > 100 µM | OVCAR-5 > 100 µM | OVCAR-8 > 100 µM | PC-3 > 100 µM | RPMI-8226 > 100 µM | RXF 393 > 100 µM | SF-268 > 100 µM | SF-295 > 100 µM | SK-MEL-28 > 100 µM | SK-MEL-5 > 100 µM | SK-OV-3 > 100 µM | SN12C > 100 µM | SNB-19 > 100 µM | SNB-75 81.3 µM | SW-620 > 100 µM | T47D > 100 µM | TK-10 > 100 µM | U-251 > 100 µM | UACC-257 > 100 µM | UACC-62 > 100 µM | UO-31 > 100 µM
> 100 µM: HCT-15

Cc1nc(O)nc(N/N=C/c2c3ccccc3c(Cl)c3ccccc23)c1C(=O)Nc1ccc(Cl)cc1
inactive: 786-0 36 µM | A498 47.5 µM | A549 63.4 µM | ACHN 33.8 µM | BT-549 > 100 µM | CAKI-1 99.5 µM | CCRF-CEM 32.3 µM | DU-145 > 100 µM | HCC 2998 44.6 µM | HCT-116 65.9 µM | HL-60 19 µM | HOP-62 34.7 µM | HT-29 55.7 µM | IGROV-1 71.1 µM | K562 68.5 µM | LOX IMVI 38.9 µM | M14 79.3 µM | MCF7 > 100 µM | MDA-MB-231 > 100 µM | MDA-MB-435 > 100 µM | MDA-N > 100 µM | MOLT-4 31.3 µM | Malme-3M > 100 µM | NCI-H226 74 µM | NCI-H23 > 100 µM | NCI-H460 45.4 µM | NCI-H522 > 100 µM | OVCAR-3 58.3 µM | OVCAR-4 45.5 µM | OVCAR-5 > 100 µM | OVCAR-8 68.9 µM | PC-3 10.8 µM | RPMI-8226 > 100 µM | SF-268 > 100 µM | SK-MEL-28 > 100 µM | SK-MEL-2 > 100 µM | SK-MEL-5 41.8 µM | SN12C > 100 µM | SNB-19 92.5 µM | SNB-75 > 100 µM | SR 38.5 µM | SW-620 52.6 µM | T47D > 100 µM | TK-10 47.6 µM | U-251 37.9 µM | UACC-257 > 100 µM | UACC-62 50.5 µM | UO-31 > 100 µM
> 100 µM: HCT-15

CC(=O)CC(=O)c1cc2c(=O)oc(C)cc2oc1=O
> 37.5 µM: HCT-15
inactive: 786-0 > 37.5 µM | A549 > 37.5 µM | ACHN > 37.5 µM | BT-549 > 37.5 µM | CAKI-1 > 37.5 µM | CCRF-CEM > 37.5 µM | COLO 205 > 37.5 µM | DU-145 > 37.5 µM | EKVX > 37.5 µM | HCC 2998 > 37.5 µM | HCT-116 > 37.5 µM | HL-60 > 37.5 µM | HOP-62 > 37.5 µM | HT-29 > 37.5 µM | IGROV-1 > 37.5 µM | K562 > 37.5 µM | KM12 > 37.5 µM | M14 > 37.5 µM | MCF7 > 37.5 µM | MDA-N > 37.5 µM | MOLT-4 > 37.5 µM | Malme-3M > 37.5 µM | NCI-H226 > 37.5 µM | NCI-H23 > 37.5 µM | NCI-H460 > 37.5 µM | NCI-H522 > 37.5 µM | NCI/ADR-RES > 37.5 µM | OVCAR-3 > 37.5 µM | OVCAR-4 > 37.5 µM | OVCAR-5 > 37.5 µM | OVCAR-8 > 37.5 µM | PC-3 > 37.5 µM | RPMI-8226 > 37.5 µM | RXF 393 > 37.5 µM | SF-268 > 37.5 µM | SF-295 > 37.5 µM | SF-539 > 37.5 µM | SK-MEL-28 > 37.5 µM | SK-MEL-2 > 37.5 µM | SK-MEL-5 > 37.5 µM | SK-OV-3 > 37.5 µM | SN12C > 37.5 µM | SNB-19 > 37.5 µM | SNB-75 2.75 µM | SR > 37.5 µM | SW-620 > 37.5 µM | TK-10 > 37.5 µM | U-251 > 37.5 µM | UACC-257 > 37.5 µM | UACC-62 > 37.5 µM | UO-31 > 37.5 µM

COC(=O)c1ccc(CN2CCc3c([nH]c4ccccc34)C2CO)o1 (centres undefined)
> 10 µM: HCT-15
inactive: 786-0 > 10 µM | A549 > 10 µM | BT-549 > 10 µM | CAKI-1 > 10 µM | CCRF-CEM > 10 µM | COLO 205 > 10 µM | DU-145 > 10 µM | EKVX > 10 µM | HCC 2998 > 10 µM | HL-60 > 10 µM | HOP-62 > 10 µM | HOP-92 > 10 µM | HT-29 > 10 µM | IGROV-1 > 10 µM | K562 > 10 µM | KM12 > 10 µM | M14 > 10 µM | MCF7 > 10 µM | MDA-MB-231 > 10 µM | MDA-MB-435 > 10 µM | MDA-N > 10 µM | MOLT-4 > 10 µM | Malme-3M > 10 µM | NCI-H23 > 10 µM | NCI-H522 > 10 µM | OVCAR-3 > 10 µM | OVCAR-4 > 10 µM | OVCAR-8 > 10 µM | PC-3 > 10 µM | RPMI-8226 > 10 µM | RXF 393 > 10 µM | SF-268 > 10 µM | SF-295 > 10 µM | SK-MEL-28 > 10 µM | SK-MEL-5 > 10 µM | SK-OV-3 > 10 µM | SN12C > 10 µM | SNB-75 > 10 µM | SR > 10 µM | SW-620 > 10 µM | T47D > 10 µM | TK-10 > 10 µM | UACC-257 > 10 µM | UACC-62 > 10 µM

CCOCCOCCOCc1nc(C#N)c(N)o1
> 100 µM: HCT-15
inactive: 786-0 > 100 µM | A498 > 100 µM | A549 > 100 µM | ACHN > 100 µM | BT-549 > 100 µM | CAKI-1 > 100 µM | CCRF-CEM > 100 µM | COLO 205 > 100 µM | DU-145 > 100 µM | EKVX > 100 µM | HCC 2998 > 100 µM | HCT-116 > 100 µM | HL-60 > 100 µM | HOP-62 > 100 µM | HT-29 > 100 µM | IGROV-1 > 100 µM | K562 > 100 µM | KM12 > 100 µM | LOX IMVI > 100 µM | M14 > 100 µM | MCF7 > 100 µM | MDA-MB-231 > 100 µM | MDA-MB-435 > 100 µM | MOLT-4 > 100 µM | NCI-H226 > 100 µM | NCI-H23 > 100 µM | NCI-H460 > 100 µM | NCI-H522 93.1 µM | NCI/ADR-RES > 100 µM | OVCAR-3 > 100 µM | OVCAR-4 > 100 µM | OVCAR-5 > 100 µM | OVCAR-8 > 100 µM | PC-3 > 100 µM | RPMI-8226 > 100 µM | RXF 393 > 100 µM | SF-268 > 100 µM | SF-295 > 100 µM | SF-539 > 100 µM | SK-MEL-28 > 100 µM | SK-MEL-2 > 100 µM | SK-MEL-5 > 100 µM | SK-OV-3 > 100 µM | SN12C > 100 µM | SNB-75 > 100 µM | SR > 100 µM | SW-620 > 100 µM | T47D > 100 µM | TK-10 > 100 µM | U-251 > 100 µM | UACC-257 > 100 µM | UACC-62 > 100 µM | UO-31 > 100 µM
